≈ marks a conversion by molar mass, not a printed value. Like-named read-outs stand apart in the source and are kept apart here.
Tests used:
3T3 cells = test: Cell growth inhibition bioassay (sulforhodamine B); type: cell-based, mouse; conditions: 48 h, SRB; for GI50: Mus musculus, NIH3T3, read-out: GI50 in indicated cell line: 3T3
In short: (§1)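 Cells were exposed to compound alongside matched solvent controls, then stained with sulforhodamine B. Percent growth inhibition was calculated from dye absorbance against the control.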

DU145 cells = test: Cell growth inhibition bioassay (sulforhodamine B); type: cell-based, human; conditions: 48 h, SRB; for GI50: Homo sapiens, DU-145, read-out: GI50 in indicated cell line: DU145
In short: as §1

H460 cells = test: Cell growth inhibition bioassay (sulforhodamine B); type: cell-based, human; conditions: 48 h, SRB; for GI50: Homo sapiens, NCI-H460, read-out: GI50 in indicated cell line: H460
In short: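 Growth inhibition was measured colorimetrically with sulforhodamine B staining and expressed as percent inhibition relative to solvent-treated controls. Cell lines were human: MCF-7 breast adenocarcinoma, DU145 and PC3 prostate carcinoma/adenocarcinoma, H460 large cell lung cancer.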

HT-29 cells = test: Cell growth inhibition bioassay (sulforhodamine B); type: cell-based, human; conditions: 48 h, SRB; for GI50: Homo sapiens, HT-29, read-out: GI50 in indicated cell line: HT-29
In short: as §1

K562 cells = test: Cell growth inhibition bioassay (sulforhodamine B); type: cell-based, human; conditions: 48 h, SRB; for GI50: Homo sapiens, K562, read-out: GI50 in indicated cell line: K562
In short: as §1

M-14 cells = test: Cell growth inhibition bioassay (sulforhodamine B); type: cell-based, human; conditions: 48 h, SRB; for GI50: Homo sapiens, M14, read-out: GI50 in indicated cell line: M-14
In short: as §1

MCF-7 cells = test: Cell growth inhibition bioassay (sulforhodamine B); type: cell-based, human; conditions: 48 h, SRB; for GI50: Homo sapiens, MCF7, read-out: GI50 in indicated cell line: MCF-7
In short: as §1

VERO cells [1] = test: Cell growth inhibition bioassay (sulforhodamine B); type: cell-based, African Green Monkey; conditions: 48 h, SRB; for GI50: Chlorocebus sabaeus, Vero, read-out: GI50 in indicated cell line: VERO
In short: as §1

[2] = system: Trypanosoma cruzi (Tulahuen C4); test: In vitro anti-T. cruzi activity (β-galactosidase CPRG colorimetric assay in VERO monolayer); type: cell-based; conditions: for Selectivity Index Lab B: IC50, VERO/IC50, T. cruzi; for inhibition at 10 µg/mL / IC50: Trypanosoma cruzi, TULAHUEN, Vero; for inhibition at 10 µg/mL: 120 h, 10 μg/mL of each compound, 120 hours, read-out: T. cruzi Inhib. (%)
M. tuberculosis H37Rv [3] = test: Anti-tuberculosis bioassay (tetrazolium microplate MIC); type: cell-based; conditions: Mycobacterium tuberculosis, read-out: Mycobacterium MIC H37Rv, Table 5
M. tuberculosis MDR = test: as above; type: cell-based; conditions: Mycobacterium tuberculosis, read-out: Mycobacterium MIC MDR
M. tuberculosis H37Rv [4] = test: Conventional aerobic (MABA) culture assay, luminescence MIC; type: cell-based, Mycobacterium tuberculosis; conditions: for MIC: Mycobacterium tuberculosis, 168 h; for Selectivity Index H37Rv: VERO vs MABA MIC
[5] = Toxicity to peritoneal macrophages (Trypan Blue count); type: cell-based, BALB/C mouse; conditions: BALB/C, mouse
[6] = system: axenic amastigotes of L. amazonensis (strain MHOM/BR/76/LTB-012); conditions: Table 8b
[7] = Cytotoxicity VERO cell (Table 6); conditions: African green monkey, VERO cells
[8] = system: axenic amastigotes of L. amazonensis (strain MHOM/BR/76/LTB-012); test: microbe, parasite or virus in culture; conditions: Leishmania amazonensis
[9] = Cytotoxicity on VERO cells (MTT), anti-T. cruzi study; conditions: African green monkey, VERO cells
[10] = system: non-replicating persistence Mycobacterium tuberculosis (NRP-TB); test: Low oxygen recovery assay (LORA); type: cell-based; conditions: value in brackets; for MIC: Mycobacterium tuberculosis, anaerobic 10 days, 28 hour recovery; for Selectivity Index LORA: VERO vs LORA MIC
peritoneal macrophages = test: Toxicity to peritoneal macrophages (Trypan Blue count); type: cell-based, BALB/C mouse
VERO cell = test: Cytotoxicity VERO cell (Table 6); conditions: Table 6
VERO cells [11] = test: Cytotoxicity on VERO cells (MTT), anti-T. cruzi study; conditions: Lab B
[12] = Lab A, read-out: T. cruzi IC50 Lab A
[13] = Lab B, read-out: T. cruzi IC50 Lab B
[14] = read-out: IC50 Cytotoxicity Against Amastigotes

## C(=N/Nc1ncnc2sc3c(c12)CCCC3)/c1ccccc1 [II-01]
3T3 cells
  GI50: 6.7 µg/mL (≈ 21.7 µM)
DU145 cells
  GI50: 6.2 µg/mL (≈ 20.1 µM)
H460 cells
  GI50: 5.6 µg/mL (≈ 18.2 µM)
HT-29 cells
  GI50: 3.8 µg/mL (≈ 12.3 µM)
K562 cells
  GI50: 4.1 µg/mL (≈ 13.3 µM)
M-14 cells
  GI50: 5.6 µg/mL (≈ 18.2 µM)
MCF-7 cells
  GI50: 3.5 µg/mL (≈ 11.3 µM)
VERO cells [1]
  GI50: 5.3 µg/mL (≈ 17.2 µM)
[2]; Lab B
  Selectivity Index Lab B: 1.8
[2]
  inhibition at 10 µg/mL: 80.1%
[2]; [12]
  IC50: 1.9 µg/mL (≈ 6.16 µM)
[2]; [13]
  IC50: 4.4 µg/mL (≈ 14.3 µM)
[2]; Table 2, read-out: IC50 - T. cruzi
  IC50: 3.92 µg/mL (≈ 12.7 µM)
M. tuberculosis H37Rv [3]
  MIC: 6.25 µg/mL (≈ 20.3 µM)
M. tuberculosis MDR
  MIC: 6.25 µg/mL (≈ 20.3 µM)
M. tuberculosis H37Rv [4]; aerobic, 7 days, H37Rv
  MIC: 23.4 µg/mL (≈ 75.9 µM)
M. tuberculosis H37Rv [4]
  Selectivity Index H37Rv: 0.5
[5]; Cytotoxicity Macrophages IC50
  IC50 at 48 h: 8.7 µM
[6]
  Selectivity Index: 0.6
[7]
  IC50: 11.1 µg/mL (≈ 36 µM)
[8]; [14]
  IC50: 3.2 µM
[8]; read-out: L. amazonensis IC50
  IC50: 13.5 µM
[9]; Cytotoxicity VERO Lab B, Lab B
  IC50: 8 µg/mL (≈ 25.9 µM)
[9]; IC50 - VERO Cytotoxicity, Table 2
  IC50: 29 µg/mL (≈ 94 µM)

## COc1cc(/C=N\Nc2ncnc3sc4c(c23)CCCC4)cc(OC)c1OC [II-14]
3T3 cells
  GI50: 9 µg/mL (≈ 22.6 µM)
DU145 cells
  GI50: 9 µg/mL (≈ 22.6 µM)
H460 cells
  GI50: 11.3 µg/mL (≈ 28.4 µM)
HT-29 cells
  GI50: 4.6 µg/mL (≈ 11.5 µM)
K562 cells
  GI50: 1.9 µg/mL (≈ 4.77 µM)
M-14 cells
  GI50: 6.2 µg/mL (≈ 15.6 µM)
MCF-7 cells
  GI50: 4.2 µg/mL (≈ 10.5 µM)
VERO cells [1]
  GI50: 9.7 µg/mL (≈ 24.3 µM)
[2]
  inhibition at 10 µg/mL: 2%
[2]; [12]
  IC50: 3 µg/mL (≈ 7.53 µM)
M. tuberculosis H37Rv [3]
  MIC: > 25 µg/mL
M. tuberculosis MDR
  MIC: > 25 µg/mL
M. tuberculosis H37Rv [4]; aerobic, 7 days, H37Rv
  MIC: > 100 µg/mL
[5]; Cytotoxicity Macrophages IC50
  IC50 at 48 h: 3.6 µM
[5]; IC50 Cytotoxicity Against Macrophages
  IC50 at 48 h: > 10 µM
[6]
  Selectivity Index: 1.2
[8]; [14]
  IC50: 10.5 µM
[8]; read-out: L. amazonensis IC50
  IC50: 2.9 µM
[9]; Cytotoxicity VERO Lab B, Lab B
  IC50: 11 µg/mL (≈ 27.6 µM)

## FC(F)(F)c1ccc(/C=N\Nc2ncnc3sc4c(c23)CCCC4)cc1 [II-24]
3T3 cells
  GI50: 4 µg/mL (≈ 10.6 µM)
DU145 cells
  GI50: 5.6 µg/mL (≈ 14.9 µM)
H460 cells
  GI50: 5.8 µg/mL (≈ 15.4 µM)
HT-29 cells
  GI50: 2.6 µg/mL (≈ 6.91 µM)
K562 cells
  GI50: 2.5 µg/mL (≈ 6.64 µM)
M-14 cells
  GI50: 6.4 µg/mL (≈ 17 µM)
MCF-7 cells
  GI50: 2 µg/mL (≈ 5.31 µM)
VERO cells [1]
  GI50: 5.4 µg/mL (≈ 14.3 µM)
[2]; Lab B
  Selectivity Index Lab B: 0.8
[2]; [13]
  IC50: 4 µg/mL (≈ 10.6 µM)
M. tuberculosis H37Rv [4]; aerobic, 7 days, H37Rv
  MIC: 6.1 µg/mL (≈ 16.2 µM)
M. tuberculosis H37Rv [4]
  Selectivity Index H37Rv: 5.5 (5.5)
[10]
  MIC: 6 µg/mL (≈ 15.9 µM)
  Selectivity Index LORA: 5.5 (5.5)
[5]; Cytotoxicity Macrophages IC50
  IC50 at 48 h: 3.1 µM
[6]
  Selectivity Index: 4.1
[7]
  IC50: 33.5 µg/mL (≈ 89 µM)
[8]; read-out: L. amazonensis IC50
  IC50: 0.7 µM
[9]; Cytotoxicity VERO Lab B, Lab B
  IC50: 3 µg/mL (≈ 7.97 µM)

## C(=N/Nc1ncnc2sc3c(c12)CCCC3)/c1ccco1 [II-18]
3T3 cells
  GI50: 2.3 µg/mL (≈ 7.71 µM)
DU145 cells
  GI50: 4.7 µg/mL (≈ 15.8 µM)
H460 cells
  GI50: 2.1 µg/mL (≈ 7.04 µM)
HT-29 cells
  GI50: 2.5 µg/mL (≈ 8.38 µM)
K562 cells
  GI50: 1.2 µg/mL (≈ 4.02 µM)
M-14 cells
  GI50: 3.3 µg/mL (≈ 11.1 µM)
MCF-7 cells
  GI50: 0.3 µg/mL (≈ 1.01 µM)
VERO cells [1]
  GI50: 2.6 µg/mL (≈ 8.71 µM)
[2]; Lab B
  Selectivity Index Lab B: 0.6
[2]; [12]
  IC50: 1.2 µg/mL (≈ 4.02 µM)
[2]; [13]
  IC50: 4.8 µg/mL (≈ 16.1 µM)
M. tuberculosis H37Rv [4]; aerobic, 7 days, H37Rv
  MIC: 11.9 µg/mL (≈ 39.9 µM)
M. tuberculosis H37Rv [4]
  Selectivity Index H37Rv: 1.0
[10]
  MIC: 2.9 µg/mL (≈ 9.72 µM)
  Selectivity Index LORA: 4.3
[5]; Cytotoxicity Macrophages IC50
  IC50 at 48 h: 0.7 µM
[6]
  Selectivity Index: 0.6
[7]
  IC50: 12.3 µg/mL (≈ 41.2 µM)
[8]; read-out: L. amazonensis IC50
  IC50: 1.2 µM
[9]; Cytotoxicity VERO Lab B, Lab B
  IC50: 3 µg/mL (≈ 10.1 µM)

## Fc1ccc(C=NNc2ncnc3sc4c(c23)CCCC4)cc1 [II-26]
3T3 cells
  GI50 in indicated cell line: 3T3: 6.7 µg/mL (≈ 20.5 µM)
DU145 cells
  GI50 in indicated cell line: DU145: 4.5 µg/mL (≈ 13.8 µM)
H460 cells
  GI50 in indicated cell line: H460: 3.1 µg/mL (≈ 9.5 µM)
HT-29 cells
  GI50 in indicated cell line: HT-29: 3.4 µg/mL (≈ 10.4 µM)
K562 cells
  GI50 in indicated cell line: K562: 2.9 µg/mL (≈ 8.88 µM)
M-14 cells
  GI50 in indicated cell line: M-14: 5.7 µg/mL (≈ 17.5 µM)
MCF-7 cells
  GI50 in indicated cell line: MCF-7: 2.4 µg/mL (≈ 7.35 µM)
VERO cells [1]
  GI50 in indicated cell line: VERO: 4.2 µg/mL (≈ 12.9 µM)
[2]; Lab A
  T. cruzi IC50 Lab A: 1.9 µg/mL
[2]; Lab B
  T. cruzi IC50 Lab B: 6.0 µg/mL
M. tuberculosis H37Rv [4]; aerobic, 7 days, H37Rv
  MIC MABA: 23.2 µg/mL (≈ 71.1 µM)
Peritoneal macrophages
  IC50: 3.1 µM
[6]; read-out: L. amazonensis IC50
  IC50: 3.2 µM
VERO cell
  Cytotoxicity VERO cell: 12.8 µg/mL
VERO cells [11]
  Cytotoxicity VERO Lab B: 6.0

## C/C(=N/Nc1ncnc2sc3c(c12)CCCC3)c1ccccc1 [II-47]
3T3 cells
  GI50: 1.7 µg/mL (≈ 5.27 µM)
DU145 cells
  GI50: 5.2 µg/mL (≈ 16.1 µM)
H460 cells
  GI50: 5.1 µg/mL (≈ 15.8 µM)
HT-29 cells
  GI50: 7.1 µg/mL (≈ 22 µM)
K562 cells
  GI50: 3.5 µg/mL (≈ 10.9 µM)
M-14 cells
  GI50: 6.4 µg/mL (≈ 19.8 µM)
MCF-7 cells
  GI50: 5.3 µg/mL (≈ 16.4 µM)
VERO cells [1]
  GI50: 9.3 µg/mL (≈ 28.8 µM)
[2]; Lab B
  Selectivity Index Lab B: 0.9
[2]; [12]
  IC50: 1.3 µg/mL (≈ 4.03 µM)
[2]; [13]
  IC50: 4.4 µg/mL (≈ 13.6 µM)
M. tuberculosis H37Rv [4]; aerobic, 7 days, H37Rv
  MIC: 23.4 µg/mL (≈ 72.6 µM)
M. tuberculosis H37Rv [4]
  Selectivity Index H37Rv: 1.4
[10]
  MIC: 2.8 µg/mL (≈ 8.68 µM)
  Selectivity Index LORA: 11.5
[5]; Cytotoxicity Macrophages IC50
  IC50 at 48 h: 51.3 µM
[6]
  Selectivity Index: 5.6
[7]
  IC50: 32.3 µg/mL (≈ 100 µM)
[8]; read-out: L. amazonensis IC50
  IC50: 9.2 µM
[9]; Cytotoxicity VERO Lab B, Lab B
  IC50: 4 µg/mL (≈ 12.4 µM)

From patent US9061984B2 (University of Louisville Research Foundation, Inc., priority 2008, dated 2015)
